Our source for the EC50 values is patent US11261175B2 (priority 2017, dated 2022).

Structures are written as SMILES.

Holding throughout (type): cell-based
Assay [1] deals with HCV replicon S52-Feo (genotype 3a). Nature of the assay: Anti-HCV activity using HCV replicon S52-Feo (genotype 3a) in Huh 7.5.1 cells, luciferase readout. The note with it: Hepatitis C virus, 72 h; Huh 7.5.1 cells with S52-Feo replicon, 3 days, firefly luciferase; read-out: HCV wt. GT-3a. Background: A replicon is a self-replicating genome or part of one, used to study replication in cells.

The subject of assay [2] is JFH5a-Rluc-ad34 virus (HCV GT-2a). Nature of the assay: Anti-HCV activity using HCVcc (JFH5a-Rluc-ad34 virus) in Huh 7.5.1 cells, Renilla luciferase readout. To be noted: Hepatitis C virus, GT2A, Huh-7.5.1, 72 h, read-out: HCV wt. GT-2a. The protocol:
<Experimental Example 1> Measurement of Anti-HCV Activity of Compounds of Examples Using HCVcc
Step 1: Cell Line and Cell Culture
Huh 7.5.1 cells were grown in Dulbecco's Modified Eagle's medium (DMEM; Gibco) supplemented with antibiotics (100 U/mL penicillin, 10 μg/mL streptomycin) and 10% heat-inactivated fetal bovine serum (ΔFBS; PEAK) in a CO2 incubator at 37° C. with […].
Huh7.5.1 cells were transfected with in vitro transcription RNA of JFH5a-Rluc-ad34, a derivative of JFH1 with adaptive mutations in E2 and p7 regions, by electroporation. JFH5a-Rluc-ad34 virus contains Renilla luciferase (Rluc), which is convenient for virus proliferation assay. The cell culture medium containing HCV was collected 3-5 days after the electroporation and then filtered through a […] pore size filter.
Step 3: Antiviral Activity Test Using Infectious HCV Particles
Huh 7.5.1 cells were inoculated with JFH5a-Rluc-ad34 virus and incubated for 4 hours. Four hours after the virus inoculation, the Huh7.5.1 cells infected with HCV were cultured in the medium containing the compound of examples serially diluted. Three days later, the cells were harvested and the intracellular luciferase activity was measured using Renilla luciferase assay system (Promega). Finally, the luciferase activity was normalized with those obtained from the negative control cells (mock-treated cells).

In assay [3] the test system is HCV replicon NK5.1-Gluc (genotype 1b). Nature of the assay: Anti-HCV activity using HCV replicon NK5.1-Gluc (genotype 1b) in Huh 7.5.1 cells, luciferase readout. The note with it: Hepatitis C virus, 72 h; Huh 7.5.1 cells with NK5.1-Gluc replicon, 3 days, Gaussia luciferase; read-out: HCV wt. GT-1b.
In assay [4] the test system is HCV genotype 1b replicon with NS5A L31V mutation. The assay can be described thus: Transiently transfected assay of genotype 1b resistance mutant RNA L31V. The note with it: Hepatitis C virus, Huh-7.5.1, 72 h, read-out: HCV Mutation L31V. An excerpt:
(§1) <Experimental Example 3> Transiently Transfected Assay of Genotype 1b Resistance Mutant RNAs
(§2) Replicon genomes substituted with Y93H, L31V and L31V+Y93H (double mutant), the resistance mutants to Daclatasvir with mutations at the NS5A protein domain 1.
(§3) These HCV resistance mutant genomes were linearized with scal restriction enzyme, and then the mutated HCV RNA was synthesized through in vitro transcription. Huh 7.5.1 cells were individually electroporated with HCV RNA with resistant mutations and plated in a 12 well plate. After 4 hours, Huh7.5.1 cells were seeded in DMEM containing the compounds of examples serially diluted for 3 days. Three days later, the cells were harvested and the intracellular luciferase activity was measured. The luciferase activity was normalized with those obtained from the negative control cells (mock-treated cells).

The test system of assay [5] is HCV genotype 1b replicon with NS5A Y93H mutation. Nature of the assay: Transiently transfected assay of genotype 1b resistance mutant RNA Y93H. The note with it: Hepatitis C virus, Huh-7.5.1, 72 h, read-out: HCV Mutation Y93H.
Excerpt: as §1, §2, §3

Assay [6] has as its system HCV genotype 1b replicon with NS5A L31V+Y93H (double mutant). The assay can be described thus: Transiently transfected assay of genotype 1b resistance mutant RNA L31V+Y93H (double mutant). To be noted: Hepatitis C virus, Huh-7.5.1, 72 h, read-out: HCV Mutation L31V + Y93H.
Excerpt: as §1, §2, §3

On to `CCCCC1(CCCC)c2cc(NC(=O)[C@@H]3CC(=O)CN3C(=O)[C@H](NC(=O)OC)c3ccccc3)ccc2-c2ccc(NC(=O)[C@@H]3CC(=O)CN3C(=O)[C@H](NC(=O)OC)c3ccccc3)cc21` [Example 6, dimethyl ((1R,1′R)-((5S,5′S)-(((9,9-dibutyl-9H-fluorene-2,7-diyl)bis(azanediyl))bis(carbonyl))bis(3-oxopyrrolidine-5,1-diyl))bis(2-oxo-1-phenylethane-2,1-diyl))dicarbamate], for which the EC50 in assay [1] lay within 0.01 to 0.1 nM; in assay [2], 0.1 to 1 nM; in assay [3], 0.01 to 0.1 nM; in assay [4], 0.001 to 0.01 nM; in assay [5], 0.1 to 1 nM; in assay [6], 1 to 100 nM.

Take `CCCCC1(CCCC)c2cc(NC(=O)[C@@H]3CC4(CC4)CN3C(=O)[C@H](NC(=O)OC)c3ccccc3)ccc2-c2ccc(NC(=O)[C@@H]3CC4(CC4)CN3C(=O)[C@H](NC(=O)OC)c3ccccc3)cc21` [Example 21, dimethyl ((1R,1′R)-((6S,6′S)-(((9,9-dibutyl-9H-fluorene-2,7-diyl)bis(azanediyl))bis(carbonyl))bis(5-azaspiro[2.4]heptane-6,5-diyl))bis(2-oxo-1-phenylethane-2,1-diyl))dicarbamate]: the EC50 in assay [1] fell in the range of 0.01 to 0.1 nM; in assay [2], 0.1 to 1 nM; in assay [3], 0.001 to 0.01 nM; in assay [4] it was 0.01 to 0.1 nM; in assay [5] it was 1 to 100 nM; in assay [6], 1 to 100 nM.

Take `CCCCC1(CCCC)c2cc(NC(=O)[C@@H]3C[C@@H](O)CN3C(=O)[C@H](NC(=O)OC)c3ccccc3)ccc2-c2ccc(NC(=O)[C@@H]3C[C@@H](O)CN3C(=O)[C@H](NC(=O)OC)c3ccccc3)cc21` [Example 29, dimethyl ((1R,1′R)-((3R,3′R,5S,5′S)-(((9,9-dibutyl-9H-fluorene-2,7-diyl)bis(azanediyl))bis(carbonyl))bis(3-hydroxypyrrolidine-5,1-diyl))bis(2-oxo-1-phenylethane-2,1-diyl))dicarbamate]: the EC50 in assay [1] was in the range of 0.01 to 0.1 nM; in assay [2], 0.1 to 1 nM; in assay [3], 0.001 to 0.01 nM; in assay [4], 0.01 to 0.1 nM; in assay [5], 0.01 to 0.1 nM; in assay [6], 0.01 to 0.1 nM.

Take `CCCCCC1(CCCCC)c2cc(NC(=O)[C@@H]3CC4(CN3C(=O)[C@H](NC(=O)OC)c3ccccc3)OCCO4)ccc2-c2ccc(NC(=O)[C@@H]3CC4(CN3C(=O)[C@H](NC(=O)OC)c3ccccc3)OCCO4)cc21` [Example 13, dimethyl ((1R,1′R)-((8S,8′S)-(((9,9-dipentyl-9H-fluorene-2,7-diyl)bis(azanediyl))bis(carbonyl))bis(1,4-dioxa-7-azaspiro[4.4]nonane-8,7-diyl))bis(2-oxo-1-phenylethane-2,1-diyl))dicarbamate]: the EC50 in assay [1] was 0.1 to 1 nM; in assay [2] it was 1 to 100 nM; in assay [3], 0.001 to 0.01 nM; in assay [4], 0.001 to 0.01 nM; in assay [5] it was 0.001 to 0.01 nM; in assay [6] it was 0.01 to 0.1 nM.

Take `CCCCCC1(CCCCC)c2cc(NC(=O)[C@@H]3CC(=O)CN3C(=O)[C@H](NC(=O)OC)c3ccccc3)ccc2-c2ccc(NC(=O)[C@@H]3CC4(CN3C(=O)[C@H](NC(=O)OC)c3ccccc3)OCCO4)cc21` [Example 18, methyl ((R)-2-((S)-8-((7-((S)-1-((R)-2-((methoxycarbonyl)amino)-2-phenylacetyl)-4-oxopyrrolidine-2-carboxyamido)-9,9-dipentyl-9H-fluorene-2-yl)carbamoyl)-1,4-dioxa-7-azaspiro[4.4]nonane-7-yl)-2-oxo-1-phenylethyl)carbamate]: the EC50 in assay [1] is 0.1 to 1 nM; in assay [2], 1 to 100 nM; in assay [3] it was 0.01 to 0.1 nM; in assay [4], 0.01 to 0.1 nM; in assay [5], 0.1 to 1 nM; in assay [6] it was 1 to 100 nM.

As for `COC(=O)N[C@@H](C(=O)N1CCC[C@H]1C(=O)Nc1ccc2c(c1)C(CCCC(F)(F)F)(CCCC(F)(F)F)c1cc(NC(=O)[C@@H]3CCCN3C(=O)[C@H](NC(=O)OC)c3ccccc3)ccc1-2)c1ccccc1` [Example 4, dimethyl ((1R,1′R)-((2S,2′S)-(((9,9-bis(4,4,4-trifluorobutyl)-9H-fluorene-2,7-diyl)bis(azanediyl))bis(carbonyl))bis(pyrrolidine-2,1-diyl))bis(2-oxo-1-phenylethane-2,1-diyl))dicarbamate], the EC50 is 0.01 to 0.1 nM in assay [1]; 1 to 100 nM in assay [2]; 0.001 to 0.01 nM in assay [3]; 0.1 to 1 nM in assay [4]; over 100 nM in assay [5]; 1 to 100 nM in assay [6].

Turning to `COC(=O)N[C@H](C(=O)N1CCC[C@@H]1C(=O)Nc1ccc2c(c1)C(CCCCC(F)(F)F)(CCCCC(F)(F)F)c1cc(NC(=O)[C@@H]3CCCN3C(=O)[C@H](NC(=O)OC)c3ccccc3)ccc1-2)c1ccccc1` [Example 5, methyl ((R)-2-((S)-2-((7-((R)-1-((S)-2-((methoxycarbonyl)amino)-2-phenylacetyl)pyrrolidine-2-carboxyamido)-9,9-bis(5,5,5-trifluoropentyl)-9H-fluorene-2-yl)carbamoyl)pyrrolidine-1-yl)-2-oxo-1-phenylethyl)carbamate], the EC50 was 0.01 to 0.1 nM in assay [1]; 1 to 100 nM in assay [2]; 0.001 to 0.01 nM in assay [3]; 0.1 to 1 nM in assay [4]; over 100 nM in assay [5]; over 100 nM in assay [6].

In the case of `CCCCC1(CCCC)c2cc(NC(=O)[C@@H]3CC(=O)CN3C(=O)[C@H](NC(=O)OC)c3ccccc3)ccc2-c2ccc(NC(=O)[C@@H]3CC4(CN3C(=O)[C@H](NC(=O)OC)c3ccccc3)OCCO4)cc21` [Example 7, methyl ((R)-2-((S)-8-((9,9-dibutyl-7-((S)-1-((R)-2-((methoxycarbonyl)amino)-2-phenylacetyl)-4-oxopyrrolidine-2-carboxyamido)-9H-fluorene-2-yl)carbamoyl)-1,4-dioxa-7-azaspiro[4.4]nonane-7-yl)-2-oxo-1-phenylethyl)carbamate], the EC50 fell in the range of 0.01 to 0.1 nM in assay [1]; 1 to 100 nM in assay [2]; 0.01 to 0.1 nM in assay [3]; 0.001 to 0.01 nM in assay [4]; 0.01 to 0.1 nM in assay [5]; 0.1 to 1 nM in assay [6].

Turning to `CCCCC1(CCCC)c2cc(NC(=O)[C@@H]3C[C@@H](O)CN3C(=O)[C@H](NC(=O)OC)c3ccccc3)ccc2-c2ccc(NC(=O)[C@@H]3C[C@H](COC)CN3C(=O)[C@H](NC(=O)OC)c3ccccc3)cc21` [Example 38, methyl ((R)-2-((2S,4S)-2-((9,9-dibutyl-7-((2S,4R)-4-hydroxy-1-((R)-2-((methoxycarbonyl)amino)-2-phenylacetyl)pyrrolidine-2-carboxyamido)-9H-fluorene-2-yl)carbamoyl)-4-(methoxymethyl)pyrrolidine-1-yl)-2-oxo-1-phenylethyl)carbamate], the EC50 in assay [1] was 0.01 to 0.1 nM; in assay [2], 0.1 to 1 nM; in assay [3] it was 0.01 to 0.1 nM; in assay [4] it was 0.001 to 0.01 nM; in assay [5], 0.001 to 0.01 nM; in assay [6] it was 0.01 to 0.1 nM.

In the case of `CCCCC1(CCCC)c2cc(NC(=O)[C@@H]3CCCN3C(=O)[C@H](NC(=O)OC)c3ccccc3)ccc2-c2ccc(NC(=O)[C@@H]3CCCN3C(=O)[C@H](NC(=O)OC)c3ccccc3)cc21` [Example 2, dimethyl ((1R,1′R)-((2S,2′S)-(((9,9-dibutyl-9H-fluorene-2,7-diyl)bis(azanediyl))bis(carbonyl))bis(pyrrolidine-2,1-diyl))bis(2-oxo-1-phenylethane-2,1-diyl))dicarbamate], the EC50 lay in the range of 0.01 to 0.1 nM in assay [1]; 1 to 100 nM in assay [2]; 0.001 to 0.01 nM in assay [3]; 0.001 to 0.01 nM in assay [4]; 0.1 to 1 nM in assay [5]; 1 to 100 nM in assay [6].
